Assay results from paper PMC3005981 (Basic & clinical pharmacology & toxicology, 2010).

Tests used:
CYP3A4/5 = test: in vitro; details: human, microsomes, HLM
CYP3A4 [1] = molecular target: CYP3A4 (Homo sapiens, UniProt P08684); test: in vitro; details: recombinant enzyme, Supersome
CYP2D6 [2] = molecular target: CYP2D6 (Homo sapiens, UniProt P10635); test: in vitro; details: recombinant enzyme
CYP2D6 [3] = test: Inhibition of methadone N-demethylation; details: human, microsomes, Inhibition of (R)- and (S)-EDDP formation, HLM with high CYP2D6 activity
CYP1A2 = test: Methadone metabolism in cDNA-expressed CYP Supersomes, with abundance scaling
CYP2A6 = test: as above
CYP2B6 = test: as above
CYP2C8 = test: as above
CYP2C9*1 = test: as above
CYP2C18 = test: as above; details: Abundance from Immunquantitation
CYP2C19 = test: as above
CYP2D6*1 = test: as above
CYP3A4 [4] = test: as above
[5] = system: CYP3A (testosterone 6β-hydroxylation); test: Correlation of EDDP formation with CYP-specific activity in 15 phenotyped HLMs; details: 15 HLMs; 750 ng/ml methadone, 0.5 mg/ml protein, 30 min; p<0.05
[6] = most incubates; limit of detection approximately 1.0 ng/ml
[7] = % Inhibition of (R)-EDDP production
[8] = % Inhibition of (S)-EDDP production
[9] = Abundance from Immunquantitation
[10] = Abundance from Relative Activity Factor

Sequence of CYP3A4 (Homo sapiens, UniProt P08684) (P08684 whole entry): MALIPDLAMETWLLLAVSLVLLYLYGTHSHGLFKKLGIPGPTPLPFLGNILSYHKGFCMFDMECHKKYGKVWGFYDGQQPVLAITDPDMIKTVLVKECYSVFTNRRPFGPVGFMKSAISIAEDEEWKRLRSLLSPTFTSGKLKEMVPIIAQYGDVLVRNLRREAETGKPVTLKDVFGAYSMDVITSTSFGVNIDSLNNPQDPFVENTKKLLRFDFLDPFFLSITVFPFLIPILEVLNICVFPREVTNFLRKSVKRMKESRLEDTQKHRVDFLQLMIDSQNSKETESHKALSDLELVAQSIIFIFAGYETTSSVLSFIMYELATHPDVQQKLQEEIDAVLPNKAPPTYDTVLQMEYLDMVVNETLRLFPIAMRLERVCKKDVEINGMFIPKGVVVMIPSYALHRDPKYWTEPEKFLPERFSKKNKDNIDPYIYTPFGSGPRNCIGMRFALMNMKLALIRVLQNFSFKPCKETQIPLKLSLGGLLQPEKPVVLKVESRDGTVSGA
Sequence of CYP2D6 (Homo sapiens, UniProt P10635) (P10635 whole entry): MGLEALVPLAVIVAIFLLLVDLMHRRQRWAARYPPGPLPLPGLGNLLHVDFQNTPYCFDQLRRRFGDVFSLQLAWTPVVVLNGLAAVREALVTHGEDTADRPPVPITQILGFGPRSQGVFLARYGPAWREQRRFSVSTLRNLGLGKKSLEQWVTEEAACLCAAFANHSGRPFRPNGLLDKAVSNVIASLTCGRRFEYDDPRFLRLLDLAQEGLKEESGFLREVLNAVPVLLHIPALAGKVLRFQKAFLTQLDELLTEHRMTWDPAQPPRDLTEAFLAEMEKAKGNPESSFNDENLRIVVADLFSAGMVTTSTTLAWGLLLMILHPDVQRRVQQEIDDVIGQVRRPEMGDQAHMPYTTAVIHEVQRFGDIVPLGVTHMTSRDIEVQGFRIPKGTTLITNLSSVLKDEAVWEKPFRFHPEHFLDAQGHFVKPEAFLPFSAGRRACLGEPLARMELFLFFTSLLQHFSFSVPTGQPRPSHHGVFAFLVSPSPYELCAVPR

NNC(=O)c1ccncc1 [Isoniazid, isoniazid]
inhibition at 15 min, 500 µM (CYP3A4/5; [7]): 70.8% | inhibition at 15 min, 500 µM (CYP3A4/5; [8]): 51.4% | inhibition at 15 min, 500 µM (CYP3A4 [1]; [7]): 96.9% | inhibition at 15 min, 500 µM (CYP3A4 [1]; [8]): 96.9%

Fc1ccc([C@@H]2CCNC[C@H]2COc2ccc3c(c2)OCO3)cc1 [Paroxetine, paroxetine]
inhibition at 30 min, 1 µM (CYP2D6 [2]; % Inhibition of (R)-EDDP production, Supersome): 9.9% | inhibition at 30 min, 1 µM (CYP2D6 [2]; % Inhibition of (S)-EDDP production, Supersome): 7.6% | inhibition at 30 min, 1 µM (CYP2D6 [2]; Inhibition of Supersome 2D6 activity): < 30% | inhibition at 30 min, 1 µM (CYP2D6 [3]; 1 µM): < 30%

C=C[C@H]1C[N@@]2CC[C@H]1C[C@@H]2[C@@H](O)c1ccnc2ccc(OC)cc12 [Quinidine, quinidine]
inhibition at 30 min, 10 µM (CYP2D6 [3]; 10 µM): < 30%

CC=C1N(C)[C@H](C)CC1(c1ccccc1)c1ccccc1 [(R)-EDDP]
Scaled contribution of CYP to formation of R- and S-EDDP (CYP1A2; [9]): 0.0% | Scaled contribution of CYP to formation of R- and S-EDDP (CYP1A2; [10]): 0.0% | Scaled contribution of CYP to formation of R- and S-EDDP (CYP2A6; [9]): 0.0% | Scaled contribution of CYP to formation of R- and S-EDDP (CYP2A6; [10]): 0.0% | Scaled contribution of CYP to formation of R- and S-EDDP (CYP2B6; [9]): 11.5% | Scaled contribution of CYP to formation of R- and S-EDDP (CYP2B6; [10]): 17.8% | Scaled contribution of CYP to formation of R- and S-EDDP (CYP2C8; [9]): 0.4% | Scaled contribution of CYP to formation of R- and S-EDDP (CYP2C8; [10]): 0.9% | Scaled contribution of CYP to formation of R- and S-EDDP (CYP2C9*1; [9]): 1.2% | Scaled contribution of CYP to formation of R- and S-EDDP (CYP2C9*1; [10]): 3.7% | Scaled contribution of CYP to formation of R- and S-EDDP (CYP2C18): 0.7% | Scaled contribution of CYP to formation of R- and S-EDDP (CYP2C19; [9]): 14.4% | Scaled contribution of CYP to formation of R- and S-EDDP (CYP2C19; [10]): 5.8% | Scaled contribution of CYP to formation of R- and S-EDDP (CYP2D6*1; [9]): 1.0% | Scaled contribution of CYP to formation of R- and S-EDDP (CYP2D6*1; [10]): 0.5% | Scaled contribution of CYP to formation of R- and S-EDDP (CYP3A4 [4]; [9]): 70.7% | Scaled contribution of CYP to formation of R- and S-EDDP (CYP3A4 [4]; [10]): 71.3% | Correlation (r) of EDDP formation with testosterone 6β-hydroxylation catalyzed by CYP3A [5]: 0.82

CC=C1N(C)[C@@H](C)CC1(c1ccccc1)c1ccccc1 [(S)-EDDP]
Scaled contribution of CYP to formation of R- and S-EDDP (CYP1A2; [9]): 0.0% | Scaled contribution of CYP to formation of R- and S-EDDP (CYP1A2; [10]): 0.0% | Scaled contribution of CYP to formation of R- and S-EDDP (CYP2A6; [9]): 0.0% | Scaled contribution of CYP to formation of R- and S-EDDP (CYP2A6; [10]): 0.0% | Scaled contribution of CYP to formation of R- and S-EDDP (CYP2B6; [9]): 18.5% | Scaled contribution of CYP to formation of R- and S-EDDP (CYP2B6; [10]): 26.7% | Scaled contribution of CYP to formation of R- and S-EDDP (CYP2C8; [9]): 0.2% | Scaled contribution of CYP to formation of R- and S-EDDP (CYP2C8; [10]): 0.4% | Scaled contribution of CYP to formation of R- and S-EDDP (CYP2C9*1; [9]): 0.4% | Scaled contribution of CYP to formation of R- and S-EDDP (CYP2C9*1; [10]): 1.1% | Scaled contribution of CYP to formation of R- and S-EDDP (CYP2C18): 0.9% | Scaled contribution of CYP to formation of R- and S-EDDP (CYP2C19; [9]): 4.4% | Scaled contribution of CYP to formation of R- and S-EDDP (CYP2C19; [10]): 1.6% | Scaled contribution of CYP to formation of R- and S-EDDP (CYP2D6*1; [9]): 1.3% | Scaled contribution of CYP to formation of R- and S-EDDP (CYP2D6*1; [10]): 0.6% | Scaled contribution of CYP to formation of R- and S-EDDP (CYP3A4 [4]; [9]): 74.3% | Scaled contribution of CYP to formation of R- and S-EDDP (CYP3A4 [4]; [10]): 69.6% | Correlation (r) of EDDP formation with testosterone 6β-hydroxylation catalyzed by CYP3A [5]: 0.54

CCC1=NC(C)CC1(c1ccccc1)c1ccccc1 (stereo not drawn) [EMDP, 2-ethyl-5-methyl-3,3-diphenylpyraline]
EMDP production from methadone [6]: no EMDP production was noted

O=C(c1ccc(OCCN2CCCCC2)cc1)c1c(-c2ccc(O)cc2)sc2cc(O)ccc12 [Raloxifene, raloxifene]
inhibition at 15 min, 30 µM (CYP3A4 [1]; [7]): 96.8% | inhibition at 15 min, 30 µM (CYP3A4 [1]; [8]): 97.2%
